Source: patent US11180791B2, “MYO1A for predicting conversion of acute pain into chronic pain and use of MYO1A for therapy of pain” (UNIVERSITE D'AIX-MARSEILLE, priority 2016, dated 2021)
Entries after “also recorded” stand apart in the source; their conditions may differ.

Experiments:
WT and Myo1a KO mice [1] = experiment: Spared nerve injury (SNI) neuropathic pain model, mechanical thresholds (Von Frey, up-down); assay type: in vivo; settings: for reversal of SNI-induced mechanical hypersensitivity: both genotypes (WT and Myo1a KO), i.t 10 nmol SNC80, 0.2 nmol DAMGO, 0.1 μg baclofen, 2 μg TAFA4, 40 μg taurine, i.p 3 mg/kg pregabalin
Protocol: (A-D) Mechanical responses of WT and KO mice following SNI surgery and i.t administration at indicated time-points of 10 nmol of SNC80, 0.2 nmol of DAMGO (A), 0.1 μg of baclofen, 2 μg of TAFA4 (n=6 mice per genotype) (B), 40 μg of taurine, i.p administration of 3 mg/kg of pregabalin (n=8 mice per genotype) (C) and i.t administration of 0.15 μg of muscimol (n=8 mice per genotype) (D).
(§1) SNC80 (Tocris Bioscience) was dissolved in a 100 mM HCl solution, DAMGO (Sigma Aldrich) was dissolved in saline (0.9% NaCl), Baclofen (Sigma Aldrich) was dissolved in H2O (pH7.6), recombinant human TAFA4 (R&D Systems) was dissolved in saline, Diazepam (DZP, Roche) was dissolved in 10% dimethyl sulfoxide (DMSO)/90% saline, Muscimol (Tocris Bioscience), Taurine (Sigma Aldrich), Bicuculline (Sigma Aldrich) and Pregabalin (Sigma Aldrich) were dissolved in Phosphate Buffer (PB, 50 mM, pH 7.4).
(§2) Except for pregabalin, all drugs were administrated via intratechal (i.t) injection. Pregabalin was injected intra-peritoneally (i.p).
(§3) All behavioral analyses were conducted on 8-12 weeks old Myo1a KO and WT males. All experiments were carried at room temperature (˜22° C.). Animals were acclimated for one hour to their testing environment prior to all experiments. Experimenters were blind to the genotype of the mice during testing. All error bars represent SEM. All statistical analysis was carried using Two Way Repeated Measures ANOVA followed by Bonferroni's post-hoc test. Openfield, Rotarod, Hot plate and Formalin tests were carried as described in Gaillard et al., 2014 (Gaillard et al., 2014).
(§4) Mechanical thresholds of the plantar surface were determined using Von Frey's filaments with the up-down method (Chaplan et al., 1994), previously as described (Gaillard et al., 2014) prior to and at several time-points after inflammation, neuropathy and paw-incision surgery.
Spared nerve injury surgery was performed as described (Shields et al., 2003). Briefly, mice were anesthetized with a mix of ketamine/xylazine and an incision was made through the skin and thigh muscle at the level of the trifurcation of the sciatic nerve. The common sural and peroneal nerves were ligated using a 6.0 silk filament (Ethicon, Piscataway, N.J., USA) and transected, while leaving the tibial nerve intact. After surgery, the animals were allowed to recover in a warming chamber, and then they were returned to their home cages. Mechanical thresholds were determined at days 7, 9 and 14 post-surgery, before and after drug administration.

WT and Myo1a KO mice [2] = experiment: Zymosan-A induced inflammatory pain model, mechanical thresholds (Von Frey, up-down); assay type: in vivo; settings: for reversal of zymosan-induced mechanical hypersensitivity: i.t 0.15 μg muscimol, 0.09 mg/kg DZP
Protocol: (E-G) Mechanical responses of WT and KO mice following zymosan-induced inflammation (n=9 mice per genotype) (E) and i.t administration at indicated time-points of 0.15 μg of muscimol, 10 nmol of SNC80 (n=9 mice per genotype) (F) and 0.09 mg/kg of DZP (G) (n=7 mice per genotype). Data are presented as mean±SEM for each group (*p<0.05; **p<0.01; ***p<0.001; ns: non-significant).
as §1, §2, §3, §4
20 μl of a solution containing 1% carrageenan in H2O (weight/vol, Sigma) or 20 μl of a solution containing 0.06 mg Zymosan-A in 0.9% NaCl (weight/vol, Sigma), were injected subcutaneously into the plantar side of the left hindpaw, using a 30 G needled syringe.
For carrageenan-induced inflammation, mechanical thresholds were determined prior to inflammation and at several time-points (see legend) starting from 1 hour and up to 60 days after inflammation. For zymosan inflammation, mechanical thresholds were measured prior to injection, at day 1 and at several time-points (see legend) up day 60. In addition, mechanical thresholds in the zymosan model were measured before inflammation, at day 1 and day 2, before and after drug administration.

laminae II neurons = experiment: Whole-cell patch-clamp recording of spontaneous EPSC in spinal cord slices; assay type: cell-based, mice
Protocol: (C-F) Whole cell recordings of spontaneous EPSC in laminae II interneurons after Musc application in naïve (C-D) and in zymosan-inflamed WT and KO mice (E-F).
Left panels: representative traces of EPSC obtained under ACSF (black traces), following superfusion of 5 μM Musc (blue traces) and during wash (brown traces).
Middle panels: Cumulative distribution of EPSC intervals (in seconds) for the experiments shown in the left panels. Note the shift of the Musc/blue curves towards the left (C, D, E middle panels), indicating a reversible increase in EPSC frequency.
Right panels: Normalized EPSC frequency (mean±SEM) under ACSF, following superfusion of 5 μM Musc and during wash. Note the absence of effect of Musc in slices from zymosan inflamed mice. The number of recorded cells is indicated in the right panels (*p<0.05; **p<0.01; ns: non-significant). (See also FIG. 8).
Transverse spinal cord slices with attached dorsal roots from juvenile (P24 to P45) Myo1a KO and WT mice were prepared for whole-cell recording. Briefly, the animals were anesthetized using Pentobarbital (200 mg/kg), perfused with ice cold oxygenated low calcium artificial cerebrospinal fluid (ACSF; in mM: NaCl 101; KCl 3.8; MgCl2 18.7, MgSO4 1.3; KH2PO4 1.2; HEPES 10; CaCl2 1; Glucose 1), and then beheaded. The vertebral column and surrounding muscles were quickly removed and immersed in ice cold oxygenated ACSF. Following laminectomy, the spinal cord was gently removed and its lumbar part was placed into a small 3% agarose block. Spinal slices (300 μm thick) were cut using a Leica VTS1000 vibratome, and transferred in warm (31° C.) ACSF (in mM: NaCl 130.5; KCl 2.4; CaCl2 2.4; NaHCO3 19.5; MgSO4 1.3; KH2PO4 1.2; HEPES 1.25; glucose 10; pH 7.4) equilibrated with 95%02-5% CO2 for at least one hour before starting patch clamp recordings. Spinal slices were placed in a recoding chamber bathed with warmed (31° C.) ACSF Electrophysiological measurements were performed under the control of an Olympus BX51 microscope using a multiclamp 2B (Molecular devices). Patch pipettes ([…]) were filled with C-based pipette solution (in mM: CsMethaneSulfonate 120; CsCl 20; CaCl2 0.1; MgCl2 1.3; EGTA 1; HEPES 10; GTP 0.1; cAMP 0.2; Leupeptin 0.1; Na2ATP 3; D-Manitol 77; pH 7.3). A glass suction electrode connected to a Master 8 (A.M.P. Instrument Ltd) stimulator was used to stimulate dorsal roots. Typically, a pair of high duration (500 μs) high intensity stimulations (350 μA) was used to recruit most primary afferent fibers in the recorded slice. All drugs were purchased from Sigma. Statistical comparison of EPSC frequencies was assessed for each cell using Kolmogorov-Smirnov test.

| Molecule | reversal of SNI-induced mechanical hypersensitivity (WT and Myo1a KO mice [1]) | reversal of injury-induced mechanical hypersensitivity (conclusions summary) (WT and Myo1a KO mice [1]; Myo1a KO mice) | other results |
| --- | --- | --- | --- |
| C[C@@H](NC(=O)[C@@H](N)Cc1ccc(O)cc1)C(=O)NCC(=O)N(C)[C@@H](Cc1ccccc1)C(=O)NCCO [DAMGO] | significantly reversed |  |  |
| C=CCN1C[C@H](C)N([C@H](c2ccc(C(=O)N(CC)CC)cc2)c2cccc(OC)c2)C[C@H]1C [SNC80] | significantly reversed |  | reversal of zymosan-induced mechanical pain (WT and Myo1a KO mice [2]; both genotypes, i.t 10 nmol SNC80): strongly reversed |
| NCC(CC(=O)O)c1ccc(Cl)cc1 (stereo not shown) [baclofen] | significantly reversed | transiently reversed |  |
| CN1C(=O)CN=C(c2ccccc2)c2cc(Cl)ccc21 [diazepam] |  |  | reversal of zymosan-induced mechanical hypersensitivity (WT and Myo1a KO mice [2]; Myo1a KO mice, 0.09 mg/kg): had no effect and not; reversal of zymosan-induced mechanical hypersensitivity (WT and Myo1a KO mice [2]; Myo1a KO mice, listed as DZP, 0.09 mg/kg): totally insensitive; reversal of zymosan-induced mechanical hypersensitivity (WT and Myo1a KO mice [2]; WT mice): strongly reversed |
| NCc1cc(=O)[nH]o1 [muscimol] |  | not | sEPSC frequency (laminae II neurons; naïve WT mice, bath application of 5 μM muscimol): significant increase; increase in sEPSC frequency (laminae II neurons; naïve slices from Myo1a KO mice, 5 μM muscimol): 544%; sEPSC frequency, effect relative to naïve WT (laminae II neurons; slices from WT mice inflamed with zymosan, 5 μM muscimol): almost doubled; sEPSC frequency (laminae II neurons; slices from zymosan inflamed Myo1a KO mice, 5 μM muscimol): had no effect; reversal of SNI-induced mechanical pain (WT and Myo1a KO mice [1]; Myo1a KO mice, i.t 0.15 μg muscimol): completely failed to reverse; also recorded: totally insensitive; reversal of zymosan-induced mechanical hypersensitivity (WT and Myo1a KO mice [2]; Myo1a KO mice): had no effect; reversal of zymosan-induced mechanical hypersensitivity (WT and Myo1a KO mice [2]; WT mice): strongly reversed |
| CC(C)C[C@H](CN)CC(=O)O [pregabalin] | significantly reversed | transiently reversed |  |
| NCCS(=O)(=O)O [taurine] | significantly reversed | transiently reversed |  |
| TAFA4: recombinant human TAFA4 (R&D Systems), a chemokine-like protein | significantly reversed | transiently reversed |  |
